No end group written: not given here.

Experimental findings from patent EP4400508A1, “ACTIVE PEPTIDE AND USE THEREOF” (Harvest Biotech Co., Ltd, priority 2021, dated 2024) are described below.

The test system of the series is Chicken Embryo. Kind of series: Chicken embryo safety test (HET-CAM, SN/T 2329-2009), irritation score method. The conditions noted are these: dose up to 500 ppm.

In the case of ESETRILLQ [EQ-9, ESETRILLQ], where the note is “HET-CAM”, the “Irritation Classification” value was “non-irritant” and the “irritation score (IS)” value was determined as 0.35. Besides, where the note is “FIG. 1”, the safety issue result was “no safety issue”.
